Laboratory results: ChEMBL document CHEMBL1201862, “PubChem BioAssay data set” (2004)
Activity calls are given as the source filed them. For most assays here, no stated cut-off is given here; in the data, actives have a measured EC50 and inactives only a lower limit.

What was measured:
Cytochrome P450 2C9 = Cytochrome P450 2C9 (Homo sapiens, UniProt P11712)
[1] = tested on: Streptococcus sp. 'group A'; assay: Streptococcus pyogenes SK(-)GAS viability under kanamycin – luminescence, BacTiterGlo, confirmation, counter-screen for streptokinase expression inhibitor project, dose response (AID 1900); assay type: functional, organism-based
Streptococcus = assay: GAS UMAA2166 growth inhibition – luminescence, BacTiterGlo, counter-screen for streptokinase expression inhibitor project, dose response (AID 1915); assay type: functional, organism-based;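 further: potency for reduction of bacterial viability or growth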
Streptokinase A = biological target: T1, Streptokinase A (Streptococcus pyogenes serotype M1, UniProt P10520); assay: viability-normalized secreted streptokinase activity reduction – plasminogen activation absorbance, OD405, dose response (AID 1914); assay type: functional, Streptococcus pyogenes M1 GAS;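 further: secreted streptokinase activity via plasminogen activation per viability signal from cell pellet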
T1 sequence (P10520 whole entry): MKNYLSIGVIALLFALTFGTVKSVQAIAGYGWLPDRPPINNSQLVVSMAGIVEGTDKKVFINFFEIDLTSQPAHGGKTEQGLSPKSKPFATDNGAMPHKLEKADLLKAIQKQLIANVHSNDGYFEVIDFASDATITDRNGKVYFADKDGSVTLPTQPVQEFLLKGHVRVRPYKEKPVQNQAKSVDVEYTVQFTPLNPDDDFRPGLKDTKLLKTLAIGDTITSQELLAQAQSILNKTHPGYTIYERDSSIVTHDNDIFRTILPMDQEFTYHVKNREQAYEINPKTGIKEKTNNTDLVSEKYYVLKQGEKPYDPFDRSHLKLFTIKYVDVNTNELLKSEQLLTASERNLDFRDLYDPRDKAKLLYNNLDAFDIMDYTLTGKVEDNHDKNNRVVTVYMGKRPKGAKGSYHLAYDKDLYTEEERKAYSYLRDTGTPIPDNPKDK

[2] = fluconazole-exposed Candida albicans growth modulators – fluorescence, retest, confirmation (AID 2467); assay type: functional, cell-based
[3] = NIH-3T3 fibroblast cytotoxicity, dose response, cytotoxicity control, cell-based, fluorescence, Alamar Blue, secondary assay (AID 2327); assay type: functional;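 further: NIH-3T3 mouse fibroblasts cultured with fluconazole at 8 µg/mL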
INS1 = assay: INS-1E survival protection against cytokine death – cell-based, luminescence, retest, dose response (AID 449756); assay type: functional; conditions: Rattus norvegicus;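 further: cell death triggered by IL-1 beta plus TNF-alpha plus IFN-gamma mixture; protective hits raise ATP signal compared with cytokine alone wells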
[4] = Trypanosoma cruzi growth suppression in host cells – NIH3T3 host cells, beta-gal luminescence, confirmation (AID 2044); assay type: functional, cell-based;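 further: intracellular parasites grown in NIH/3T3 mouse fibroblasts as host cells; luminescent beta-galactosidase reporter signal from transgenic T. cruzi replicating inside host cells; inhibitors lower the luminescence signal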
[5] = NIH3T3 cell viability loss – ATP luminescence, mouse fibroblasts, counter-screen, dose response (AID 2010); assay type: functional, cell-based;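 further: cells exposed to compound for about 90 hours before reading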
[6] = Luminescence Cell-Based Dose Retest to Confirm Inhibitors of Cancer Stem Cells. [Related pubchem assays (depositor defined):AID2717, AID2721]; assay type: functional; conditions: Homo sapiens
[7] = biological target: T2, Corticotropin-releasing factor receptor 2/Corticotropin-releasing factor-binding protein (Homo sapiens, UniProt P24387+Q13324); assay: activators of CRF receptor 2 with binding protein – uHTS hits, confirmation (AID 602473); assay type: functional; conditions: read-out: EC50_Mean
T2 sequence (Q13324 whole entry): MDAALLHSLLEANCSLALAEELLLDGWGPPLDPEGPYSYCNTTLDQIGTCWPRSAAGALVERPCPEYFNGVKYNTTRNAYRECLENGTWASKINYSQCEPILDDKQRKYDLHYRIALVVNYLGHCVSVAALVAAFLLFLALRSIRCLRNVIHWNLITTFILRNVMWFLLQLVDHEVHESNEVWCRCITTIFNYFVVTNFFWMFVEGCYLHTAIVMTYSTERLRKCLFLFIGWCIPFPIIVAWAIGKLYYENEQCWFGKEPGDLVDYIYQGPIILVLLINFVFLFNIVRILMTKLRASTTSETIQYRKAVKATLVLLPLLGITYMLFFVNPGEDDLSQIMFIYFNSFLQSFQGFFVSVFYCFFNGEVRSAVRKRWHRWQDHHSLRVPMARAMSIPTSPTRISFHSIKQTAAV
T2 sequence (P24387 whole entry): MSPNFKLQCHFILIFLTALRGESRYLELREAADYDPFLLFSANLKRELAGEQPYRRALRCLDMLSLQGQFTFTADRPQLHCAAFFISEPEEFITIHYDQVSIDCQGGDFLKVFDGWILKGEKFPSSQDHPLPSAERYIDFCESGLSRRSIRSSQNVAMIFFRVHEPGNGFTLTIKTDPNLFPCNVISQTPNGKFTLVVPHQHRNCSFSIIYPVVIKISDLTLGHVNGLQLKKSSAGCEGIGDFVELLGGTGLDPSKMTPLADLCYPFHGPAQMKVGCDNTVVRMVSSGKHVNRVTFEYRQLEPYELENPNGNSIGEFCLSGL

Chain of Cytochrome P450 2C9 (P11712 whole entry): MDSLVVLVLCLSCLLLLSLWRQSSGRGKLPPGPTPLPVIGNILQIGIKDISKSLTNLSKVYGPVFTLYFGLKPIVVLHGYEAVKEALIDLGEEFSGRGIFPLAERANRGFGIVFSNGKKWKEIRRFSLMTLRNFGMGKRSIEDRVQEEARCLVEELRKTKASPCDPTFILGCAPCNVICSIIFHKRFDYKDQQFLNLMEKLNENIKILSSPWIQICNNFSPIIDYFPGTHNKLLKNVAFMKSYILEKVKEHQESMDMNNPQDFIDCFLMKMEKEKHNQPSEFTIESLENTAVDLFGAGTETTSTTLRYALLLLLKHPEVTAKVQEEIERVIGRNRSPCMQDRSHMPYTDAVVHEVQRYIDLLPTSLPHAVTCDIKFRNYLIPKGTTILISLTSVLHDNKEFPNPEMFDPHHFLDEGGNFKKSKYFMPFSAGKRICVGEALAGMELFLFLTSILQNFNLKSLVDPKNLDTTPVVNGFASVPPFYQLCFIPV

COc1ccc2c(c1)c(CC(=O)O)c(C)n2Cc1ccc(Cl)cc1
AC50 (Cytochrome P450 2C9): 12.6 µM (inconclusive)

CC(C)CCOc1ccc(NC(=O)C2OC3OC(C)(C)OC3C3OC(C)(C)OC23)cc1 (stereo not given)
AC50 (Cytochrome P450 2C9): 25.1 µM (inconclusive)

CC1(C)S[C@@H]2[C@H](NC(=O)COc3ccccc3)C(=O)N2C1C(=O)OCc1ccccc1 (stereo not given in full)
EC50 [1]: 1.42 µM (active)
EC50 (Streptococcus): 2.56 µM (active)
EC50 (Streptokinase A): > 150 µM (not active)

Cc1cccc(NC(=O)NNC(=O)c2cc3ccccc3cc2O)c1C
EC50 [2]: > 38 µM (not active)
EC50 [3]: 80.6 µM (active)

CC(=O)c1ccccc1OCCOCCOc1ccccc1C(C)=O
AC50 (INS1): 31.1 µM (active)

COc1ccc(CN(C)CC(=O)c2c(N)n(Cc3ccccc3)c(=O)n(C)c2=O)c(OC)c1
EC50 [4]: 2.78 µM (active)
EC50 [5]: > 60 µM (not active)

COc1cc(OC)c(NC(S)=NCc2ccccc2)cc1Cl
EC50 [2]: > 38 µM (not active)
EC50 [3]: > 160 µM (inactive)

COc1ccc(/C=C/C2=CCN(Cc3ccc(OC)cc3)CC2)cc1
EC50 [4]: 3.17 µM (active)
EC50 [5]: > 60 µM (not active)

CSc1ccc(/C=C/c2ccc3cccc(O)c3n2)cc1
EC50 [1]: 0.693 µM (active)
EC50 (Streptococcus): 14 µM (active)

Cc1ccc(-n2c(N)c(-c3nc4ccccc4n3C)sc2=S)cc1
EC50 [1]: 39.6 µM (active)
EC50 (Streptococcus): > 150 µM (not active)
EC50 (Streptokinase A): > 150 µM (not active)

Cc1ccc2nc(N=C(NS(=O)(=O)c3ccc(F)cc3)c3ccccc3)sc2c1
EC50 [1]: 5.01 µM (active)
EC50 (Streptococcus): 10 µM (active)
EC50 (Streptokinase A): > 50 µM (not active)

CSc1cnc2c(N)nc(N(C)C)nc2n1
EC50 [2]: 2.63 µM (active)
EC50 [3]: > 160 µM (inconclusive)

CC(=O)c1c(O)cc(=O)n(-c2ccccc2)c1-c1cccc2ccccc12
AC50 (Cytochrome P450 2C9): 22.4 µM (inconclusive)

COc1cc(OC)c(C=O)c(OC(=O)N2CCOCC2)c1
AC50 [6]: > 195 µM (inactive)

O=C(c1ccc(O)cc1)c1ccc(C(=O)c2ccc(O)cc2)cc1
EC50 [1]: 2.84 µM (active)
EC50 (Streptococcus): 31.4 µM (active)
EC50 (Streptokinase A): > 150 µM (not active)

CCn1cc(C(=O)N[C@H](C)c2ccccc2)c(=O)c2cc(F)c(N3CCN(C)CC3)cc21
AC50 [6]: 0.796 µM (active)

CN1CCc2nc(SCc3ccc(C(C)(C)C)cc3)c(C#N)cc2C1
EC50 [4]: 0.465 µM (active)
EC50 [5]: 19 µM (active)

COc1ccccc1CNc1nc(-c2ccc(N(C)C)cc2)nc2ccccc12
AC50 (Cytochrome P450 2C9): 0.794 µM (inconclusive)

CC1(C)C=Cc2c(c3c(c4c(=O)c(-c5ccc(O)cc5)coc24)OC(C)(C)CC3)O1
AC50 [6]: 6.61 µM (active)

Cc1ccccc1CN(C)CC(=O)Nc1ccccc1-c1ccccc1
EC50 [1]: 7.65 µM (active)
EC50 (Streptococcus): > 150 µM (not active)
EC50 (Streptokinase A): 23.3 µM (active)

CC(=O)c1ccc(-c2cc([C@H]3[C@H]4C=CC[C@@H](C)[C@@H]4C(=O)N3Cc3ccccc3)ccc2F)cc1
AC50 [6]: 5.46 µM (active)

O=C(CSc1nnc(CNC(=O)c2ccccc2)o1)NCc1ccccc1
EC50 [1]: > 150 µM (not active)
EC50 (Streptococcus): > 150 µM (not active)
EC50 (Streptokinase A): > 150 µM (not active)

COc1ccc(C(=O)N2CCc3c([nH]c4ccccc34)C2C(F)(F)F)cc1 (stereo not given)
EC50 [1]: > 150 µM (not active)
EC50 (Streptococcus): > 150 µM (not active)
EC50 (Streptokinase A): > 150 µM (not active)

COc1cc(OC)cc(C(=O)Nc2cccc(N3CCCC3)c2)c1
EC50 [4]: 3.33 µM (active)
EC50 [5]: > 30 µM (not active)

CC1(C)CC(=O)C2=C(C1)OC1=C(C(=O)CC(C)(C)C1)C2c1cc([N+](=O)[O-])cc([N+](=O)[O-])c1O
EC50 [2]: 0.221 µM (active)
EC50 [3]: > 160 µM (inactive)

Cn1c(=S)c2nc(SCc3cccnc3)[nH]c2n(C)c1=O
AC50 (Cytochrome P450 2C9): 6.31 µM (inconclusive)

CN1CCN(CCOc2ccc(Cl)c(Cl)c2)CC1
EC50 [4]: 0.516 µM (active)
EC50 [5]: > 60 µM (not active)

CC(C)Cc1ccc(C(C)C(=O)Nc2ccc(O)cc2)cc1 (stereo not given)
EC50 [7]: 3.77 µM (active)

COc1cc2cc(C(=O)N3CCOCC3)cc(-c3ccc(C)cc3)c2cc1OC
AC50 (INS1): 6.42 µM (active)

CCCOc1ccc(NCC(=O)Nc2ccc(C)cc2C)cc1
EC50 [4]: 3.07 µM (active)
EC50 [5]: > 60 µM (not active)

Cc1ccc(NC(=S)N(CCCN2CCCC2)Cc2cccn2Cc2ccc(Cl)cc2)cc1Cl
AC50 [6]: 5.36 µM (active)

COc1ccc(CCC(C)NCC2CCCCC2)cc1 (stereo not given)
AC50 [6]: 5.09 µM (active)

COc1ccc(S(=O)(=O)N2CCCCCC2)cc1N(C)S(=O)(=O)c1ccc(Cl)cc1
EC50 [4]: 2.21 µM (active)
EC50 [5]: > 60 µM (not active)

CC(C)(C)c1cc(C(=O)NNc2cccc(Cl)c2)n(Cc2ccccc2)n1
AC50 [6]: 1.34 µM (active)

O=c1c2ccccc2nc(SCCN2CCCCC2)n1CCc1ccccc1
EC50 [4]: 1.57 µM (active)
EC50 [5]: > 60 µM (not active)

COc1ccc(-n2c(=O)c3c4c(sc3n3c(S)nnc23)CCC4)cc1
EC50 [1]: 15.7 µM (active)
EC50 (Streptococcus): 17.4 µM (active)

Cc1ccc(-c2csc(-c3c[nH]c4ccccc34)n2)c(C)c1
EC50 [1]: 12 µM (active)
EC50 (Streptococcus): 7.96 µM (active)
EC50 (Streptokinase A): > 150 µM (not active)
AC50 [6]: 2.88 µM (active)

COc1cnc(-c2ccccn2)nc1Oc1ccc(C(C)(C)C)cc1
AC50 (INS1): 6.45 µM (active)
EC50 [1]: 12.4 µM (active)
EC50 (Streptococcus): 19.2 µM (active)
EC50 (Streptokinase A): > 150 µM (not active)

CN1CCN(CCCOc2ccc(-c3ccccc3)cc2)CC1
EC50 [4]: 0.988 µM (active)
EC50 [5]: 7.93 µM (active)

COc1ccccc1CNC(=O)C(=O)NCC1CCCN1S(=O)(=O)c1cccs1 (stereo not given)
EC50 [4]: 2.54 µM (active)
EC50 [5]: > 60 µM (not active)

O=C(NCCc1ccccc1F)C1CCCN1S(=O)(=O)c1ccc2ccccc2c1 (stereo not given)
EC50 [4]: 1.63 µM (active)
EC50 [5]: > 60 µM (not active)

O=[N+]([O-])c1ccc(CP(=O)(c2ccccc2)c2ccccc2)cc1
AC50 [6]: > 195 µM (inactive)

O=C(Nc1cccc(-c2csc(Nc3ccc(Cl)cc3)n2)c1)c1cc([N+](=O)[O-])cc(C(F)(F)F)c1
AC50 [6]: 1.56 µM (active)

Cc1ccc(NS(=O)(=O)c2ccc(NC(=O)c3ccccc3C(=O)O)cc2)c(C)c1
EC50 [4]: > 60 µM (not active)
EC50 [5]: > 60 µM (not active)

Cc1cc2oc(=O)cc(CN3CCN(S(=O)(=O)/C=C/c4ccccc4)CC3)c2cc1C
EC50 [4]: 2.02 µM (active)
EC50 [5]: > 60 µM (inconclusive)

Cc1ccc(-c2cc(-c3ccccc3)nc(N(C)N)n2)cc1
EC50 [1]: 14.6 µM (active)
EC50 (Streptococcus): > 150 µM (not active)
EC50 (Streptokinase A): > 150 µM (not active)

c1ccc(CSc2nnc([C@@H]3CCCN3)o2)cc1
AC50 (Cytochrome P450 2C9): 5.62 µM (inconclusive)

Cc1nc(SCc2nc3cc(C(F)(F)F)ccc3[nH]2)c2oc3ccccc3c2n1
AC50 [6]: 4.11 µM (active)

COc1cc(/C=N/N(c2ccccc2)c2ccccc2)ccc1O
AC50 [6]: 5.16 µM (active)

CCCCc1ccc(N/N=C(\C(C)=O)C(=O)Nc2ccc(NC(C)=O)cc2OC)cc1
AC50 [6]: 3.91 µM (active)

Cc1ccc(-c2nn3c(O)c4c(nc3c2C)CCCC4)cc1
AC50 (Cytochrome P450 2C9): 6.31 µM (inconclusive)

O=C1CN(/N=C/c2ccc([N+](=O)[O-])o2)C(=O)N1 [NITROFURANTOIN]
EC50 [1]: 3.16 µM (active)
EC50 (Streptococcus): 9.83 µM (active)
EC50 (Streptokinase A): > 150 µM (not active)
